Results taken from ChEMBL document CHEMBL1146665 (Bioorg Med Chem Lett, 2004).

What was measured:
[1] = target: Melatonin receptor type 1A (Homo sapiens, UniProt P48039); assay: Binding affinity towards human melatonin receptor type 1A
[2] = target: T1, Melatonin receptor type 1B (Homo sapiens, UniProt P49286); assay: Binding affinity towards human melatonin receptor type 1B
T1 sequence (P49286 whole entry): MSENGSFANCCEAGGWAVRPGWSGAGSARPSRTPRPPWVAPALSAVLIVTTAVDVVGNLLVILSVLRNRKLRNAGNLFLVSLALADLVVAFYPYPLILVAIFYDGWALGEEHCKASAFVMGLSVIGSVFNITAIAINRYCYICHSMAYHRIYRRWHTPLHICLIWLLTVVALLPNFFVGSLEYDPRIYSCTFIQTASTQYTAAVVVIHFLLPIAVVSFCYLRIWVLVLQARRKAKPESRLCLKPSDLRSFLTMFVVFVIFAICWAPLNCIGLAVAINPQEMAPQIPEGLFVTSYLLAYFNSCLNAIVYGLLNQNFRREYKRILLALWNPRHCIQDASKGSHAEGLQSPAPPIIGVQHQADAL

[3] = system: NIH3T3; assay: Inhibition of forskolin-stimulated cAMP accumulation in NIH3T3 cells expressing MT2 receptor; assay type: functional, cell-based; conditions: Mus musculus

Sequence of Melatonin receptor type 1A (P48039 whole entry): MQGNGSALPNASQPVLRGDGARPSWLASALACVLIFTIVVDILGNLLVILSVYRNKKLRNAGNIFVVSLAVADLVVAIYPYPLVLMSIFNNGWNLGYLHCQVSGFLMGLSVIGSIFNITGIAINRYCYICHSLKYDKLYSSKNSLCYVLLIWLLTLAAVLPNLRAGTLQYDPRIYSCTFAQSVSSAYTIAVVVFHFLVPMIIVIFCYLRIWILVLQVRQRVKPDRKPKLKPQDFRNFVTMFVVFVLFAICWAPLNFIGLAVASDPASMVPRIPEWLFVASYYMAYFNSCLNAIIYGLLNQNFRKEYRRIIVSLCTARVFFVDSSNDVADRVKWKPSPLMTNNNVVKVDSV

Compound | Ki [1] [nM] | Ki [2] [nM] | EC50 [3] [nM]
CCCC(=O)Nc1ccc(S(=O)(=O)c2cccc(OC)c2)cc1 | > 500 | 10 | –
COc1cccc(N(C)c2ccc(NC(=O)C(C)C)cc2)c1 | 106 | 5.5 | –
CCCC(=O)Nc1ccc(Cc2cccc3c2CCO3)cc1 | 41 | 0.71 | –
COc1cccc(Oc2ccc(NC(C)=O)cc2)c1 | 84 | 4.1 | –
CCCC(=O)Nc1ccc(Oc2cccc(OC)c2)cc1 | 63 | 0.75 | 1.07
CCCC(=O)Nc1ccc(Nc2cccc(OC)c2)cc1 | 31 | 0.39 | –
COc1cccc(Oc2ccc(NC(=O)CC(C)C)cc2)c1 | > 500 | 15 | –
CCC(=O)Nc1ccc(Oc2cccc(OC)c2)cc1 | 300 | 6.8 | –
COc1cccc(Nc2ccc(NC(=O)C3CC3)cc2)c1 | 61 | 64 | –
CCCC(=O)Nc1ccc(N(C)c2cccc3c2CCO3)cc1 | 36 | 0.49 | –
COc1cccc(Oc2ccc(NC(=O)C3CC3)cc2)c1 | 99 | 13 | –
COCC(=O)Nc1ccc(Oc2cccc(OC)c2)cc1 | 180 | 5.9 | –
CCCC(=O)Nc1ccc(Oc2ccccc2OC)cc1 | > 500 | 108 | –
CCNC(=O)Nc1ccc(Oc2cccc(OC)c2)cc1 | > 500 | 250 | –
COc1cccc(N(C)c2ccc(NC(=O)C3CC3)cc2)c1 | 12 | 4.8 | –
CCCC(=O)Nc1ccc(Oc2cccc3c2CCO3)cc1 | 18 | 0.68 | –
CCC(=O)Nc1ccc(Nc2cccc(OC)c2)cc1 | 61 | 1.8 | –
CCCC(=O)Nc1ccc(Nc2cccc3c2CCO3)cc1 | > 500 | 39 | –
COc1cccc(Oc2ccc(NC(=O)C(C)C)cc2)c1 | > 500 | 122 | –

Compound | Ki [1] [nM] | Ki [2] [nM] | EC50 [3] [nM]
CCCC(=O)Nc1ccc(Oc2cccc3c2OCCO3)cc1 | 92 | 4.7 | –
CCCC(=O)Nc1ccc(Cc2cccc3occc23)cc1 | 92 | 0.78 | –
CCOC(=O)Nc1ccc(Nc2cccc(OC)c2)cc1 | > 500 | 150 | –
CCC(=O)Nc1ccc(N(C)c2cccc(OC)c2)cc1 | 1 | 0.17 | –
CCCC(=O)Nc1ccc(Oc2ccc(OC)cc2)cc1 | > 500 | > 400 | –
CCCCC(=O)Nc1ccc(Oc2cccc(OC)c2)cc1 | > 500 | – | –
COc1cccc(Nc2ccc(NC(=O)C(C)C)cc2)c1 | > 500 | 84 | –
CCOC(=O)Nc1ccc(N(C)c2cccc(OC)c2)cc1 | 34 | 7.2 | –
CCCC(=O)Nc1ccccc1Oc1cccc(OC)c1 | > 500 | 130 | –
CCCC(=O)Nc1ccc(C(=O)c2cccc(OC)c2)cc1 | > 500 | 33 | –
CCCC(=O)Nc1ccc(Sc2cccc(OC)c2)cc1 | 29 | 0.19 | –
COc1cccc(Nc2ccc(NC(C)=O)cc2)c1 | 84 | 4.2 | –
CCCC(=O)Nc1cccc(Oc2cccc(OC)c2)c1 | > 500 | 26.8 | –
COc1cccc(N(C)c2ccc(NC(C)=O)cc2)c1 | 0.05 | 0.23 | –
C/C=C/C(=O)Nc1ccc(Oc2cccc(OC)c2)cc1 | 98 | 2.1 | –
CCCC(=O)Nc1ccc(N(C)c2cccc(OC)c2)cc1 | 1.1 | 0.1 | –
CCCC(=O)Nc1ccc(Cc2cccc(OC)c2)cc1 | 10.9 | 0.12 | –
C#CCC(=O)Nc1ccc(Oc2cccc(OC)c2)cc1 | > 500 | 110 | –
